Measurements from PubChem BioAssay AID192 (DTP/NCI, 2004).
Where “and” joins values, the source holds several entries; their conditions need not be identical. Equal values may be shown once. Inconclusive results and toxic doses are left out.

Test system: BDF1 mice, B16 melanoma ip, median survival T/C
Test: NCI In Vivo Anticancer Drug Screen. Data for tumor model B16 Melanoma (intraperitoneal) in B6D2F1 (BDF1) mice
Conditions: endpoint: median survival time, higher = longer survival
Procedure, shortened: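 Read-out: survival or tumor size, given as treated/control ratio. Controls received vehicle only; animals bore transplantable tumors.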

[1] = dose: 0.5 mg/kg/injection, schedule: Q01DX009 (ip), vehicle: saline + alcohol
[2] = dose: 1.0 mg/kg/injection, schedule: Q01DX009 (ip), vehicle: saline + alcohol
[3] = dose: 2.0 mg/kg/injection, schedule: Q01DX009 (ip), vehicle: saline + alcohol
[4] = dose: 4.0 mg/kg/injection, schedule: Q01DX009 (ip), vehicle: saline + alcohol
[5] = dose: 100.0 mg/kg/injection, schedule: Q01DX009 (ip), vehicle: saline with Tween-80
[6] = dose: 6.25 mg/kg/injection, schedule: Q01DX009 (ip), vehicle: saline with Tween-80

C=CCC(OC(=O)c1ccc(Br)cc1)C1(C)OC1C(C)C1CC(O)(C(OC)OC)NC(=O)O1 (stereo not given)
T/C (dose: 0.25 mg/kg/injection, schedule: Q01DX009 (ip), vehicle: saline + alcohol): 100 % of control | T/C [1]: 103 % of control | T/C [2]: 93 % of control | T/C [3]: 98 % of control | T/C [4]: 90 % of control

Cc1cc(O)c(N=Nc2ccc(C(=O)O)cc2)cc1C
T/C (dose: 12.5 mg/kg/injection, schedule: Q01DX009 (ip), vehicle: suspension in saline): 109 % of control | T/C (dose: 25.0 mg/kg/injection, schedule: Q01DX009 (ip), vehicle: suspension in saline): 106 % of control | T/C (dose: 50.0 mg/kg/injection, schedule: Q01DX009 (ip), vehicle: suspension in saline): 109 % of control | T/C (dose: 100.0 mg/kg/injection, schedule: Q01DX009 (ip), vehicle: suspension in saline): 90 % of control | T/C (dose: 200.0 mg/kg/injection, schedule: Q01DX009 (ip), vehicle: suspension in saline): 87 % of control

Cc1cnc(=S)[nH]c1N
T/C (dose: 50.0 mg/kg/injection, schedule: Q01DX009 (ip), vehicle: Klucel (hydroxypropylcellulose) (HPC)): 108 % of control | T/C (dose: 100.0 mg/kg/injection, schedule: Q01DX009 (ip), vehicle: Klucel (hydroxypropylcellulose) (HPC)): 97 % of control | T/C (dose: 200.0 mg/kg/injection, schedule: Q01DX009 (ip), vehicle: Klucel (hydroxypropylcellulose) (HPC)): 94 % of control

CCOC(=O)/C(C(C)=O)=C(/O)c1ccc(OC(F)(F)C(F)Cl)cc1OC(F)(F)C(F)Cl.CCOC(=O)/C(C(C)=O)=C(/O)c1ccc(OC(F)(F)C(F)Cl)cc1OC(F)(F)C(F)Cl.[Cu] (stereo not given)
T/C (dose: 12.5 mg/kg/injection, schedule: Q01DX009 (ip), vehicle: Klucel (hydroxypropylcellulose) (HPC)): 89 % of control | T/C (dose: 25.0 mg/kg/injection, schedule: Q01DX009 (ip), vehicle: Klucel (hydroxypropylcellulose) (HPC)): 88 % of control

O=C(/C=C/C(=O)OCC(Cl)(Cl)Cl)OCC(Cl)(Cl)Cl
T/C [5]: 96 % of control | T/C (dose: 200.0 mg/kg/injection, schedule: Q01DX009 (ip), vehicle: saline with Tween-80): 92 % of control

COC(=O)C12OCC34C(CC5C(C)=C(O)C(=O)CC5(C)C3C(O)C1O)OC(=O)C(OC(=O)/C=C(\C)C(C)(C)O)C24 (stereo not given)
T/C (dose: 0.05 mg/kg/injection, schedule: Q01DX009 (ip), vehicle: saline with Tween-80): 124 % of control | T/C (dose: 0.1 mg/kg/injection, schedule: Q01DX009 (ip), vehicle: saline with Tween-80): 150 % of control | T/C (dose: 0.2 mg/kg/injection, schedule: Q01DX009 (ip), vehicle: saline): 159 % of control | T/C (dose: 0.4 mg/kg/injection, schedule: Q01DX009 (ip), vehicle: saline with Tween-80): 152 % of control | T/C (dose: 0.4 mg/kg/injection, schedule: Q01DX009 (ip), vehicle: saline): 153 % of control | T/C (dose: 0.8 mg/kg/injection, schedule: Q01DX009 (ip), vehicle: saline with Tween-80): 172 % of control | T/C (dose: 1.6 mg/kg/injection, schedule: Q01DX009 (ip), vehicle: saline with Tween-80): 161 % of control

NCCN
T/C (dose: 177.0 mg/kg/injection, schedule: Q01DX009 (ip), vehicle: saline): 115 % of control | T/C (dose: 266.0 mg/kg/injection, schedule: Q01DX009 (ip), vehicle: saline): 96 % of control | T/C (dose: 400.0 mg/kg/injection, schedule: Q01DX009 (ip), vehicle: saline): 105 % of control

CCCCCCCCCCCCCCCCCCOCCCCCCCCCCCCCCCCCC
T/C [5]: 90 % of control | T/C (dose: 400.0 mg/kg/injection, schedule: Q01DX009 (ip), vehicle: saline with Tween-80): 88 % of control

Clc1ccc(/C=C2\c3cc(Cl)ccc3-c3c(Cl)cc(Cl)cc32)cc1
T/C [6]: 90 % of control

Nc1ccccc1.[C-]#[O+].[C-]#[O+].[C-]#[O+].[C-]#[O+].[C-]#[O+].[Cr]
T/C (dose: 2.5 mg/kg/injection, schedule: Q01DX009 (ip), vehicle: saline): 95 % of control | T/C (dose: 5.0 mg/kg/injection, schedule: Q01DX009 (ip), vehicle: saline): 114 % of control | T/C (dose: 10.0 mg/kg/injection, schedule: Q01DX009 (ip), vehicle: saline): 108 % of control

CC1CCC(NC(=O)N(CCCl)N=O)CC1 (stereo not given)
T/C (dose: 0.5 mg/kg/injection, schedule: Q01DX009 (ip), vehicle: other): 104 % of control | T/C [1]: 95 % of control | T/C (dose: 1.0 mg/kg/injection, schedule: Q01DX009 (ip), vehicle: other): 112 % of control | T/C [2]: 113 % of control | T/C (dose: 1.9 mg/kg/injection, schedule: Q01DX001 (ip), vehicle: saline): 106 % of control | T/C (dose: 2.0 mg/kg/injection, schedule: Q01DX009 (ip), vehicle: distilled water + Tween-80 + alcohol): 103 % of control | T/C (dose: 2.0 mg/kg/injection, schedule: Q01DX009 (ip), vehicle: other): 111 % of control | T/C [3]: 118 % of control | T/C (dose: 2.5 mg/kg/injection, schedule: Q04DX003 (ip), vehicle: other): 109 % of control | T/C (dose: 3.75 mg/kg/injection, schedule: Q01DX001 (ip), vehicle: saline): 117 % of control | T/C (dose: 3.75 mg/kg/injection, schedule: Q04DX003 (ip), vehicle: other): 112 % of control and 123 % of control | T/C (dose: 4.0 mg/kg/injection, schedule: Q01DX009 (ip), vehicle: distilled water + Tween-80 + alcohol): 108 % of control | T/C [4]: 150 % of control | T/C (dose: 5.0 mg/kg/injection, schedule: Q04DX003 (ip), vehicle: other): 124 % of control | T/C (dose: 7.5 mg/kg/injection, schedule: Q04DX003 (ip), vehicle: other): 212 % of control | T/C (dose: 8.0 mg/kg/injection, schedule: Q01DX009 (ip), vehicle: distilled water + Tween-80 + alcohol): 184 % of control | T/C (dose: 8.0 mg/kg/injection, schedule: Q01DX009 (ip), vehicle: other): 200 % of control | T/C (dose: 8.0 mg/kg/injection, schedule: Q01DX009 (ip), vehicle: saline + alcohol): 72 % of control | T/C (dose: 9.0 mg/kg/injection, schedule: Q04DX002 (ip), vehicle: Klucel (hydroxypropylcellulose) (HPC)): 121 % of control | T/C (dose: 10.0 mg/kg/injection, schedule: Q04DX003 (ip), vehicle: other): 189 % of control | T/C (dose: 15.0 mg/kg/injection, schedule: Q04DX002 (ip), vehicle: Klucel (hydroxypropylcellulose) (HPC)): 150 % of control | T/C (dose: 15.0 mg/kg/injection, schedule: Q04DX003 (ip), vehicle: other): 94 % of control and 272 % of control | T/C (dose: 16.0 mg/kg/injection, schedule: Q01DX009 (ip), vehicle: distilled water + Tween-80 + alcohol): 51 % of control | T/C (dose: 16.0 mg/kg/injection, schedule: Q01DX009 (ip), vehicle: other): 50 % of control | T/C (dose: 16.0 mg/kg/injection, schedule: Q01DX009 (ip), vehicle: saline + alcohol): 45 % of control | T/C (dose: 20.0 mg/kg/injection, schedule: Q04DX003 (ip), vehicle: other): 263 % of control | T/C (dose: 24.0 mg/kg/injection, schedule: Q01DX001 (ip), vehicle: distilled water + Tween-80 + alcohol): 161 % of control | T/C (dose: 25.0 mg/kg/injection, schedule: Q04DX002 (ip), vehicle: Klucel (hydroxypropylcellulose) (HPC)): 196 % of control | T/C (dose: 30.0 mg/kg/injection, schedule: Q04DX003 (ip), vehicle: other): 50 % of control and 55 % of control | T/C (dose: 32.0 mg/kg/injection, schedule: Q01DX009 (ip), vehicle: other): 37 % of control | T/C (dose: 32.0 mg/kg/injection, schedule: Q01DX009 (ip), vehicle: saline + alcohol): 31 % of control | T/C (dose: 40.0 mg/kg/injection, schedule: Q01DX001 (ip), vehicle: distilled water + Tween-80 + alcohol): 182 % of control | T/C (dose: 42.0 mg/kg/injection, schedule: Q04DX002 (ip), vehicle: Klucel (hydroxypropylcellulose) (HPC)): 213 % of control | T/C (dose: 64.0 mg/kg/injection, schedule: Q01DX009 (ip), vehicle: other): 27 % of control | T/C (dose: 64.0 mg/kg/injection, schedule: Q01DX009 (ip), vehicle: saline + alcohol): 26 % of control | T/C (dose: 66.7 mg/kg/injection, schedule: Q01DX001 (ip), vehicle: distilled water + Tween-80 + alcohol): 63 % of control

CN(C)CCOc1ccc2c(c1)C/C(=C/c1ncc([N+](=O)[O-])n1C)C2=O
T/C [6]: 109 % of control | T/C (dose: 12.5 mg/kg/injection, schedule: Q01DX009 (ip), vehicle: saline with Tween-80): 100 % of control | T/C (dose: 25.0 mg/kg/injection, schedule: Q01DX009 (ip), vehicle: saline with Tween-80): 96 % of control | T/C (dose: 50.0 mg/kg/injection, schedule: Q01DX009 (ip), vehicle: saline with Tween-80): 99 % of control | T/C [5]: 109 % of control

CN(C)CC/C=C1\c2ccccc2Sc2ccc(C(F)(F)F)cc21
T/C (dose: 0.19 mg/kg/injection, schedule: Q01DX009 (ip), vehicle: saline): 105 % of control | T/C (dose: 0.39 mg/kg/injection, schedule: Q01DX009 (ip), vehicle: saline): 122 % of control | T/C (dose: 0.78 mg/kg/injection, schedule: Q01DX009 (ip), vehicle: saline): 111 % of control | T/C (dose: 1.56 mg/kg/injection, schedule: Q01DX009 (ip), vehicle: saline): 108 % of control | T/C (dose: 3.12 mg/kg/injection, schedule: Q01DX009 (ip), vehicle: saline): 105 % of control | T/C (dose: 6.12 mg/kg/injection, schedule: Q01DX009 (ip), vehicle: saline): 90 % of control
